Measurements from PubChem BioAssay (NCI).
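Cultured in 96-well plates, cells were exposed to test compound for 48 hours across five concentrations. At the GI50, growth is halved. TGI: total growth inhibition.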

Key:
Experiment in all cases: NCI tumour cell line growth inhibition, 48 h
A498 renal = system: A498 renal
A549 NSCLC = system: A549 NSCLC
ACHN renal = system: ACHN renal
COLO 205 colon = system: COLO 205 colon
HOP-92 NSCLC = system: HOP-92 NSCLC
K-562 leukemia = system: K-562 leukemia
NCI-H522 lung = system: NCI-H522 lung
NCI/ADR-RES ovarian = system: NCI/ADR-RES ovarian
OVCAR-8 ovarian = system: OVCAR-8 ovarian
NCI-H226 lung = system: NCI-H226 lung

Compound | TGI (A498 renal) | TGI (A549 NSCLC) | TGI (ACHN renal) | TGI (COLO 205 colon) | TGI (HOP-92 NSCLC) | TGI (K-562 leukemia) | TGI (NCI-H522 lung) | TGI (NCI/ADR-RES ovarian) | TGI (OVCAR-8 ovarian) | TGI (NCI-H226 lung) | GI50 (A498 renal) | GI50 (A549 NSCLC) | GI50 (ACHN renal) | GI50 (COLO 205 colon) | GI50 (HOP-92 NSCLC) | GI50 (K-562 leukemia) | GI50 (NCI-H226 lung) | GI50 (NCI-H522 lung) | GI50 (NCI/ADR-RES ovarian) | GI50 (OVCAR-8 ovarian)
CNC(C)C(O)c1ccc2oc3cc(=O)c4ccccc4c-3nc2c1 (stereo unspecified) | 50.6 µM | > 100 µM | 57.9 µM | > 100 µM | > 100 µM | > 100 µM | 33.7 µM | > 100 µM | > 100 µM | – | – | – | – | – | – | – | – | – | – | –
C(=Nc1ccc2c(c1)Cc1ccccc1-2)c1ccccn1 | > 100 µM | > 100 µM | > 100 µM | – | > 100 µM | > 100 µM | > 100 µM | > 100 µM | > 100 µM | > 100 µM | – | – | – | – | – | – | – | – | – | –
O=c1cc(CF)[nH]c(=S)[nH]1 | > 100 µM | > 100 µM | > 100 µM | – | > 100 µM | > 100 µM | > 100 µM | > 100 µM | > 100 µM | > 100 µM | – | – | – | – | – | – | – | – | – | –
COc1ccc(/C=N/n2cnc3c(c2=O)SC(=C(C#N)C#N)N3c2ccccc2)cc1 | – | > 100 µM | > 100 µM | > 100 µM | > 100 µM | > 100 µM | > 100 µM | – | > 100 µM | > 100 µM | – | – | – | – | – | – | – | – | – | –
N[C@H](Cc1ccc2oc3cc(=O)c4ccccc4c-3nc2c1)C(=O)O | > 100 µM | > 100 µM | > 100 µM | > 100 µM | > 100 µM | 71.2 µM | > 100 µM | > 100 µM | > 100 µM | > 100 µM | – | – | – | – | – | – | – | – | – | –
CCCn1cnc2c(SCc3ccc(Cl)cc3)nc(N)nc21 | 49.1 µM | > 100 µM | 33.8 µM | – | > 100 µM | 48.2 µM | 36.9 µM | 73.2 µM | > 100 µM | – | – | – | – | – | – | – | – | – | – | –
O=C(N[C@@H](Cc1coc2ccccc12)B(O)O)[C@@H]1C[C@H]2CC[C@@H]1O2 | 5.73 µM | > 100 µM | > 100 µM | > 100 µM | 80.8 µM | > 100 µM | 81.6 µM | > 100 µM | > 100 µM | 2.76 µM | 0.702 µM | 7.58 µM | 1.93 µM | 23.1 µM | 5.06 µM | 9.99 µM | 1.13 µM | 5.04 µM | 48 µM | 80.8 µM
CCCO[C@@H]1[C@@H](OC(C)=O)[C@@H](OC(C)=O)C(C)(C)/C=C/[C@H](C)C(=O)[C@@]2(OC(C)=O)C[C@@](C)(OC(C)=O)[C@H](OC(C)=O)[C@@H]2[C@H]2OC(=O)CC[C@@]12OC(=O)c1ccccc1 | – | – | > 25 µM | > 25 µM | > 25 µM | > 25 µM | > 25 µM | > 25 µM | > 25 µM | > 25 µM | – | – | – | – | – | – | – | – | – | –
COc1ccc(C2COc3c(ccc(O)c3C)C2)cc1OC (stereo unspecified) | > 31.7 µM | > 167 µM | – | 166 µM | > 186 µM | > 200 µM | 142 µM | > 200 µM | > 200 µM | > 139 µM | – | – | – | – | – | – | – | – | – | –
CN(C)CCNC(=O)c1cccc2[nH]c(-c3ccccn3)nc12 | > 94.8 µM | > 100 µM | – | 33.6 µM | 80.8 µM | > 100 µM | > 63.8 µM | > 87.7 µM | > 100 µM | 60.8 µM | – | – | – | – | – | – | – | – | – | –
Nc1nc(SCc2ccccc2Cl)c2[nH]cnc2n1 | 73.1 µM | > 100 µM | > 100 µM | > 100 µM | – | > 100 µM | > 100 µM | – | > 100 µM | – | – | – | – | – | – | – | – | – | – | –
C/C(=N\NC(=S)N1CCCC1)c1nc2ncccc2[nH]1 | 27.1 µM | > 100 µM | 11.4 µM | 28.5 µM | 8.5 µM | 37 µM | 30.2 µM | > 100 µM | 39.9 µM | 4.31 µM | – | – | – | – | – | – | – | – | – | –
Cc1nc2ccc(S(=O)(=O)Nc3nccs3)cc2c(=O)n1NS(=O)(=O)c1nccs1 | > 100 µM | – | > 100 µM | > 100 µM | > 100 µM | > 100 µM | > 100 µM | > 100 µM | > 100 µM | > 100 µM | – | – | – | – | – | – | – | – | – | –
C=CCCC1(C)CCCNC1=S (stereo unspecified) | > 100 µM | > 100 µM | > 100 µM | > 100 µM | > 100 µM | > 100 µM | – | – | > 100 µM | > 100 µM | – | – | – | – | – | – | – | – | – | –
COc1ccc2c(c1)c(-c1nc(-c3c[nH]c4ncccc34)cs1)cn2CCCCN1CCCCC1 | 2.9 µM | – | 3.04 µM | – | 2.48 µM | 3.49 µM | – | – | – | – | 1.43 µM | – | 1.66 µM | – | 1.18 µM | 1.61 µM | – | – | – | –
CCCCC1C=Cn2c(=O)oc3c(OC(C)C)c(C)c(O)c1c32 (stereo unspecified) | 1.1 µM | 6.97 µM | 3.35 µM | 9.97 µM | 12.2 µM | > 35.3 µM | 5.87 µM | 5.88 µM | 11.4 µM | 8.12 µM | – | – | – | – | – | – | – | – | – | –
O=C1c2ccccc2OCC12OC21C=CC(Cl)=CC1 (stereo unspecified) | 55 µM | 56.6 µM | > 100 µM | 33.4 µM | > 100 µM | > 100 µM | – | 50.1 µM | – | > 100 µM | – | – | – | – | – | – | – | – | – | –
CCC(=O)OCN(C)c1nc(N(C)COC(=O)CC)nc(N(C)COC(=O)CC)n1 | > 100 µM | – | – | 59.2 µM | > 100 µM | > 100 µM | – | > 100 µM | > 100 µM | > 100 µM | – | – | – | – | – | – | – | – | – | –
